Measurements as given in ChEMBL document CHEMBL5579895, “Discovery of TYRA-300: First Oral Selective FGFR3 Inhibitor for the Treatment of Urothelial Cancers and Achondroplasia” (J Med Chem, 2024).

Assays:
[1] = Inhibition of recombinant FGFR3/BAIAP2L1 (unknown origin) transduced in mouse BaF3 cells incubated for 48 hrs by Cell Titer Glo assay; format: cell-based; conditions: BaF3, 48 h
[2] = Inhibition of recombinant BCR/FGFR1 (unknown origin) transduced in mouse BaF3 cells incubated for 48 hrs by Cell Titer Glo assay; format: cell-based; conditions: BaF3, 48 h
[3] = Inhibition of recombinant BCR/FGFR2 (unknown origin) transduced in mouse BaF3 cells incubated for 48 hrs by Cell Titer Glo assay; format: cell-based; conditions: BaF3, 48 h
[4] = Inhibition of recombinant BCR/FGFR4 (unknown origin) transduced in mouse BaF3 cells incubated for 48 hrs by Cell Titer Glo assay; format: cell-based; conditions: BaF3, 48 h
[5] = Stability in human liver microsomes assessed as half life at 1 uM incubated upto 180 mins by LC-MS/MS analysis; format: ADME, Microsome
[6] = Stability in human hepatocytes assessed as half life at 1 uM incubated upto 180 mins by LC-MS/MS analysis; format: ADME, cell-based, Hepatocyte

For `C[C@@H](Oc1ccc2[nH]nc(-c3ccc(N4CCN(S(C)(=O)=O)CC4=O)nc3)c2c1)c1c(Cl)cncc1Cl`, the IC50 [1] was 48 nM, the IC50 [2] was 653 nM and the IC50 [3] was 407 nM. It also gave an IC50 [4] of 412 nM and a half-life at 1 µM [5] of 3.3 min.
For `C[C@@H](Oc1ccc2[nH]nc(-c3ccc(N4CC5(C4)CN(S(C)(=O)=O)C5)nc3)c2c1)c1c(Cl)cccc1Cl`, the IC50 [1] was 30 nM and the IC50 [2] was 405 nM.
For `C[C@@H](Oc1ccc2[nH]nc(-c3ccc(N4CCC5(CC4)CCS(=O)(=O)C5)nc3)c2c1)c1c(Cl)cncc1Cl`, the IC50 [1] was 14 nM, the IC50 [2] was 423 nM and the IC50 [3] was 193 nM. For the same compound, the IC50 [4] was 577 nM and the half-life at 1 µM [6] was 88 min.
`CC(C)N1CC2(CN(c3ccc(-c4n[nH]c5ccc(O[C@H](C)c6c(Cl)cncc6Cl)cc45)cn3)C2)C1` gave an IC50 [1] of 4.1 nM, an IC50 [2] of 59 nM and an IC50 [3] of 35 nM. It also gave an IC50 [4] of 22 nM and a half-life at 1 µM [6] of 51 min.
Work on `C[C@@H](Oc1ccc2[nH]nc(-c3ccc(Cl)nc3)c2c1)c1c(Cl)cncc1Cl` yielded an IC50 [1] of 110 nM, an IC50 [2] of 1040 nM and an IC50 [3] of 451 nM. The IC50 [4] was 2200 nM.
Work on `C[C@H](Oc1ccc2[nH]nc(-c3ccc(N4CC5(C4)CN(S(C)(=O)=O)C5)nc3)c2c1)c1c(Cl)cnnc1Cl` yielded an IC50 [1] of 179 nM and an IC50 [2] of 2000 nM.
`C[C@@H](Oc1ccc2[nH]nc(-c3ccc(N4CC5(CCCS(=O)(=O)C5)C4)nc3)c2c1)c1c(Cl)cncc1Cl` gave an IC50 [1] of 2.5 nM, an IC50 [2] of 61 nM and an IC50 [3] of 33 nM. It also gave an IC50 [4] of 17 nM and a half-life at 1 µM [6] of 85 min.
Work on `C[C@@H](Oc1ccc2[nH]nc(-c3ccc(N4CCC5(CCOC5)CC4)nc3)c2c1)c1c(Cl)cncc1Cl` yielded an IC50 [1] of 48 nM, an IC50 [2] of 711 nM and an IC50 [3] of 360 nM. It also gave an IC50 [4] of 835 nM.
For `CCC(=O)N1CCN(c2ccc(-c3n[nH]c4ccc(O[C@H](C)c5c(Cl)cncc5Cl)cc34)cn2)CC1`, the IC50 [1] was 6 nM, the IC50 [2] was 112 nM and the half-life at 1 µM [5] was 4.7 min.
For `Cc1ncc(Cl)c([C@@H](C)Oc2ccc3[nH]nc(-c4ccc(N5CC6(C5)CN(S(C)(=O)=O)C6)nc4)c3c2)c1Cl`, the IC50 [1] was 10 nM, the IC50 [2] was 176 nM and the IC50 [3] was 47 nM. For the same compound, the half-life at 1 µM [6] was 64 min.
`C[C@@H](Oc1ccc2[nH]nc(-c3ccc(N4CC5(CN(C(=O)N(C)C)C5)C4)nc3)c2c1)c1c(Cl)cncc1Cl` gave an IC50 [1] of 17 nM, an IC50 [2] of 234 nM and an IC50 [3] of 202 nM. The IC50 [4] was 469 nM and the half-life at 1 µM [6] was 14 min.
Work on `C[C@@H](Oc1ccc2[nH]nc(-c3cnc(N4CC5(C4)CN(S(C)(=O)=O)C5)cn3)c2c1)c1c(Cl)cncc1Cl` yielded an IC50 [1] of 16 nM, an IC50 [2] of 189 nM and an IC50 [3] of 97 nM. It also gave an IC50 [4] of 21 nM and a half-life at 1 µM [6] of over 100 min.
In the case of `C[C@@H](Oc1cc2c(-c3ccc(N4CC5(C4)CN(S(C)(=O)=O)C5)nc3)n[nH]c2cc1Cl)c1c(Cl)cncc1Cl`, the IC50 [1] is reported as 6.2 nM, the IC50 [2] is reported as 60 nM and the IC50 [3] is reported as 35 nM. It also gave an IC50 [4] of 37 nM.
In the case of `C[C@H](Oc1ccc2[nH]nc(-c3ccc(N4CC5(C4)CN(S(C)(=O)=O)C5)nc3)c2c1)c1c(Cl)cncc1Cl`, the IC50 [1] is reported as 133 nM.
For `C[C@@H](Oc1ccc2[nH]nc(-c3ccc(N4CCN(S(C)(=O)=O)C5(CC5)C4)nc3)c2c1)c1c(Cl)cncc1Cl`, the IC50 [1] was 12 nM, the IC50 [2] was 172 nM and the half-life at 1 µM [5] was 4.8 min.
`C[C@@H](Oc1ccc2[nH]nc(-c3ccc(N4CCOCC4)nc3)c2c1)c1c(Cl)cncc1Cl` showed an IC50 [1] of 36 nM, an IC50 [2] of 514 nM and an IC50 [3] of 313 nM. For the same compound, the IC50 [4] was 1230 nM and the half-life at 1 µM [5] was 5.5 min.
Compound `CCOC(=O)N1CC2(C1)CN(c1ccc(-c3n[nH]c4ccc(O[C@H](C)c5c(Cl)cncc5Cl)cc34)cn1)C2` has an IC50 [1] of 22 nM, an IC50 [2] of 434 nM and an IC50 [3] of 248 nM. It also gave an IC50 [4] of 418 nM and a half-life at 1 µM [6] of 27 min.
For `C[C@@H](Oc1ccc2[nH]nc(-c3ccc(N4CCC5(CC4)CN(C)CC(=O)N5)nc3)c2c1)c1c(Cl)cncc1Cl`, the IC50 [1] was 13 nM, the IC50 [2] was 208 nM and the IC50 [3] was 154 nM. For the same compound, the IC50 [4] was 298 nM and the half-life at 1 µM [6] was 36 min.
`CCS(=O)(=O)N1CC2(CN(c3ccc(-c4n[nH]c5ccc(O[C@H](C)c6c(Cl)cncc6Cl)cc45)cn3)C2)C1` showed an IC50 [1] of 40 nM, an IC50 [2] of 390 nM and an IC50 [3] of 290 nM. The IC50 [4] was 529 nM.
In the case of `C[C@@H](Oc1ccc2[nH]nc(-c3ccc(N4CCN(C)CC4)nc3)c2c1)c1c(Cl)cncc1Cl`, the IC50 [1] is reported as 3.6 nM, the IC50 [2] is reported as 46 nM and the IC50 [3] is reported as 28 nM. For the same compound, the IC50 [4] was 27 nM and the half-life at 1 µM [5] was 5 min.
In the case of `C[C@@H](Oc1ccc2[nH]nc(-c3ccc(C4CCN(S(C)(=O)=O)CC4)nc3)c2c1)c1c(Cl)cncc1Cl`, the IC50 [1] is reported as 5.3 nM, the IC50 [2] is reported as 99 nM and the half-life at 1 µM [5] is reported as 15 min.
`C[C@@H](Oc1cc2c(-c3ccc(N4CC5(C4)CN(S(C)(=O)=O)C5)nc3)n[nH]c2cc1F)c1c(Cl)cncc1Cl` gave an IC50 [1] of 6.3 nM, an IC50 [2] of 84 nM and an IC50 [3] of 56 nM. For the same compound, the IC50 [4] was 40 nM and the half-life at 1 µM [6] was over 100 min.
`C[C@@H](Oc1ccc2[nH]nc(-c3ccc(N4CCC5(CCCO5)CC4)nc3)c2c1)c1c(Cl)cncc1Cl` gave an IC50 [1] of 97 nM, an IC50 [2] of 872 nM and an IC50 [3] of 503 nM. For the same compound, the IC50 [4] was 2030 nM.
With `COc1cc2[nH]nc(-c3ccc(N4CC5(C4)CN(S(C)(=O)=O)C5)nc3)c2cc1O[C@H](C)c1c(Cl)cncc1Cl` the IC50 [1] was 0.8 nM, the IC50 [2] was 14 nM and the IC50 [3] was 6.9 nM. It also gave an IC50 [4] of 4.5 nM.
Work on `C[C@@H](Oc1ccc2[nH]nc(-c3ccc(N4CC5(CCCN(S(C)(=O)=O)C5)C4)nc3)c2c1)c1c(Cl)cncc1Cl` yielded an IC50 [1] of 6 nM, an IC50 [2] of 94 nM and an IC50 [3] of 62 nM. For the same compound, the IC50 [4] was 39 nM and the half-life at 1 µM [6] was 40 min.
With `COC(=O)N1CCN(c2ccc(-c3n[nH]c4ccc(O[C@H](C)c5c(Cl)cncc5Cl)cc34)cn2)CC1` the IC50 [1] was 38 nM, the IC50 [2] was 556 nM and the IC50 [3] was 387 nM. For the same compound, the IC50 [4] was 591 nM and the half-life at 1 µM [5] was 8.5 min.
For `C[C@@H](Oc1ccc2[nH]nc(-c3ccc(N4CC5(C4)CS(=O)(=O)C5)nc3)c2c1)c1c(Cl)cncc1Cl`, the IC50 [1] was 26 nM, the IC50 [2] was 228 nM and the IC50 [3] was 191 nM. The IC50 [4] was 300 nM.
`C[C@@H](Oc1ccc2[nH]nc(-c3ccc(N4CC5(CCN5S(C)(=O)=O)C4)nc3)c2c1)c1c(Cl)cncc1Cl` gave an IC50 [1] of 18 nM, an IC50 [2] of 290 nM and an IC50 [3] of 131 nM. It also gave an IC50 [4] of 229 nM and a half-life at 1 µM [6] of 49 min.
With `C[C@@H](Oc1ccc2[nH]nc(-c3ccc(N4CCN(C(=O)N(C)C)CC4)nc3)c2c1)c1c(Cl)cncc1Cl` the IC50 [1] was 13 nM, the IC50 [2] was 290 nM and the IC50 [3] was 249 nM. The IC50 [4] was 307 nM and the half-life at 1 µM [5] was 1.1 min.
Work on `C[C@@H](Oc1ccc2[nH]nc(-c3ccc(N4CCN(S(C)(=O)=O)CC4)nc3)c2c1)c1c(Cl)cncc1Cl` yielded an IC50 [1] of 5.8 nM, an IC50 [2] of 150 nM and an IC50 [3] of 104 nM. It also gave an IC50 [4] of 156 nM and a half-life at 1 µM [5] of 9.6 min.
Work on `C[C@@H](Oc1ccc2[nH]nc(/C=C/c3cnn(CCO)c3)c2c1)c1c(Cl)cncc1Cl` [LY-2874455] yielded an IC50 [1] of 0.2 nM, an IC50 [2] of 0.5 nM and an IC50 [3] of 0.2 nM. It also gave an IC50 [4] of 2 nM.
With `C[C@@H](Oc1ccc2[nH]nc(-c3ccc(N4CC5CC(C4)N5S(C)(=O)=O)nc3)c2c1)c1c(Cl)cncc1Cl` the IC50 [1] was 23 nM, the IC50 [2] was 338 nM and the half-life at 1 µM [5] was 15 min.
`Cc1cncc(C)c1[C@@H](C)Oc1ccc2[nH]nc(-c3ccc(N4CC5(C4)CN(S(C)(=O)=O)C5)nc3)c2c1` gave an IC50 [1] of 8.1 nM, an IC50 [2] of 135 nM and an IC50 [3] of 86 nM. The IC50 [4] was 52 nM and the half-life at 1 µM [6] was 32 min.
`C[C@@H](Oc1ccc2[nH]nc(-c3ccc(N4CC5(C4)CN(S(C)(=O)=O)C5)nc3)c2c1)c1c(Cl)cnc(F)c1Cl` showed an IC50 [1] of 16 nM and an IC50 [2] of 258 nM.
